Experimental data published in patent US20250332283A1, “NUCLEOTIDE DELIVERY FROM INJECTABLE HYDROPHOBIC BIOMATERIAL” (DANMARKS TEKNISKE UNIVERSITET, priority 2022, published 2025).
“Also recorded” adds a separate entry of the source. {5AmMC6} = amino-modifier C6 linker (IDT), here bearing the Gd-DOTA label; l = locked nucleic acid (LNA); d = 2'-deoxy (DNA)

Key:
[1] = Biodistribution of Gd-ASO after intratumoral injection, ICP-MS; type: in vivo, 4T1 tumor bearing Balb/CJRj mice
Method: Methods: Gadolinium-labeled ASOs were synthesized as described in example 41. Spermine-Chol Gd-ASO complexes were prepared using the hydrophobic ionpairing method as described in example 43. The ASO complex was concentrated by freeze-drying, dissolved i in DMSO and embedded into NCCell (SuBen: GTH: EtOH: DMSO 55:20:2:15) according to example 45. The final Gd-ASO concentration in the NCCell was […]. Free Gd-ASO was prepared in PBS buffer at a concentration of 0.95 μg/μL.
On Day 0, 4T1 tumor bearing Balb/CJRj mice were, under anesthesia (isoflurane), injected intratumorally with 50 μL of NCCell or 42 μL of free Gd-ASO in PBS, with a total concentration of 40 μg Gd-ASO per injection. […] Free ASO was injected using a 23G needle.
Blood was collected from different groups 10 minutes, 1 hour, 4 hours, 24 hours, 72 hours and 5 days after treatment. Organs and other fluids (liver, spleen, lungs, kidneys) were harvested 24 hours and 5 days after treatment. For sample processing, full organ weight was recorded, as well as the weight of the tissue used, and was further processed for ICP-MS measurements. To prepare tissue for ICP-MS analysis, 50-100 mg of organs or NCCell were digested in 500 μL HNO3, (69%) 50 μL HCl (37%) and 300 μL H2O2 (35%) at 65° C. overnight followed by further dilutions in water and 2% HCl and subjected to ICP-MS analysis using Ir (0.5 ppb) as internal standard.

[2] = at a neutral pH of 7; cited from earlier work

free ASO: Gd-DOTA labelled ASO /5AmMC6/+G*+T*+C*A*C*A*A*T*G*C*A*T*T*+C*+T*+A in PBS (DNA GTCACAATGCATTCTA; sugars from the 5' end l3 d10 l3, all phosphorothioate, 5' {5AmMC6}, methylation of C not given here; Gd-DOTA attached via 5' amino linker)
Gd-ASO concentration in liver, spleen, kidney and lung ([1]; 24 and 120 hours after intratumoral injection of 40 μg Gd-ASO): highest concentration of free ASO was observed in the lungs, followed by the liver and spleen | Gd-ASO in blood ([1]; 10 minutes to 5 days after intratumoral injection, listed as free ASOs): could be detected 10 minutes after injection; also recorded: no detectable Gd signal in the blood at later timepoints

CCN(CCO)CCCOc1ccc2c(Nc3cc(CC(=O)Nc4cccc(F)c4)[nH]n3)ncnc2c1 [AZD281]
logP [2]: 2
